The values below come from patent US20050271588A1, “Liposome targeting of matrix metalloproteinase inhibitors” (priority 2001, published 2005).

Structures are written as SMILES. Positions of bridges follow the written chain, without caps; N, C: chain ends. Residues, ends and D or L forms follow the SMILES beside them.

Data set [1] is described as follows: Trp fluorescence I350/I330 ratio. It counts as physicochemical. As to the method: Fluorescence spectroscopy. The environments of the tryptophan residues of CTT, STT, CLP, and CWL in liposomes were studied by fluorescence spectroscopy. The center of Trp fluorescence peak is at ˜350 nm when in water, whereas in a hydrophobic environment the emission is centered near 330 nm. Accordingly, changes in the microenvironment of Trp can be monitored by measuring I350/I330, the ratio of the emission at 350 nm to that at 330 nm (Lakowicz, 1999). Tryptophan fluorescence was recorded with a Perkin Elmer LS 50 B spectrofluorometer equipped with a magnetically stirred and thermostated cuvette compartment. […] Excitation and emission bandpasses were 10 nm and 10 nm, respectively. Excitation wavelength was 295 nm, and emission spectra were recorded in the range 300 to 400 nm. […]

Another data set concerns U937 cells. Nature of the data set: Cell killing by Adriamycin-containing liposomes, EthD-1 viability assay. It counts as cell-based. Conditions: U937, 24 h, peptide 85 μM, Adriamycin 0.4 μM. As to the method: Viability assays. Peptide-liposome complexes with the encapsulated adriamycin were made as described above, yielding final concentrations of peptide, lipid, and adriamycin of 85 μM, 0.2 mM, and 0.4 μM, respectively, and were subsequently added to a ten μl (10^5 cells) sample of U937 cells. For the detection of dead cells EthD-1 was used. This fluorophore is membrane-impermeable and emits fluorescence only when bound to DNA (Papadopoulos et al., 1994). Accordingly, EthD-1 readily enters dead cells and binds to their DNA, its fluorescence intensity correlating to the amount of dead cells. EthD-1 emission was measured using microplate reader with excitation at 495 nm and emission at 635 nm. Student's t-test was used to assess statistical significance.

`CC(C)C[C@@H]1NC(=O)[C@H]([C@@H](C)O)NC(=O)[C@H](Cc2ccccc2)NC(=O)CNC(=O)[C@H](Cc2c[nH]c3ccccc23)NC(=O)[C@H](Cc2c[nH]cn2)NC(=O)[C@H]([C@@H](C)O)NC(=O)[C@H]([C@@H](C)O)NC(=O)[C@@H](N)CSSC[C@@H](C(=O)O)NC1=O` [CTT] (H-CTTHWGFTLC-OH; disulfide 1-10; N-terminus and C-terminus assumed): the “I350/I330 of Trp residue” value in data set [1] (in PBS) is 1.4; in data set [1] (presence of LUVs (0.5 mM total phospholipid)), 1.00. The “Increase in killing of cells vs Adriamycin liposomes without peptide” value in the data set on U937 cells amounted to 4.1 fold.
